Data on 19 compounds can be found in patent US7435823B2, “Compounds and methods of use” (Amgen Inc., priority 2004, dated 2008).

Structures are written as SMILES. Where two headings read alike, the source gives them in different places.

The test system of series [1] is Human Umbilical Vein Endothelial cells. The series is described as follows: HUVEC proliferation assay, VEGF-stimulated. It counts as cell-based. The conditions noted are these: 72 h, read-out: inhibition of VEGF-stimulated HUVEC proliferation. As to the method: HUVEC Proliferation Assay
Human Umbilical Vein Endothelial cells are purchased from Clonetics, Inc., as cryopreserved cells harvested from a pool of donors. These cells, at passage 1, are thawed and expanded in EBM-2 complete medium, until passage 2 or 3. The cells are trypsinized, washed in DMEM+10% FBS+antibiotics, and spun at 1000 rpm for 10 min. Prior to centrifugation of the cells, a small amount is collected for a cell count. After centrifugation, the medium is discarded, and the cells are resuspended in the appropriate volume of DMEM+10% FBS+antibiotics to achieve a concentration of 3×10^5 cells/mL. Another cell count is performed to confirm the cell concentration. The cells are diluted to 3×10^4 cells/mL in DMEM+10% FBS+antibiotics, and 100 μL of cells are added to a 96-well plate. The cells are incubated at 37° C. for 22 h.
Prior to the completion of the incubation period, compound dilutions are prepared. Five-point, five-fold serial dilutions are prepared in DMSO, at concentrations 400-fold greater than the final concentrations desired. 2.5 μL of each compound dilution are diluted further in a total of 1 mL DMEM+10% FBS+antibiotics (400× dilution). Medium containing 0.25% DMSO is also prepared for the 0 μM compound sample. At the 22 h timepoint, the medium is removed from the cells, and 100 μL of each compound dilution is added. The cells are incubated at 37° C. for 2-3 h.
During the compound pre-incubation period, the growth factors are diluted to the appropriate concentrations. Solutions of DMEM+10% FBS+antibiotics, containing either VEGF or bFGF at the following concentrations: 50, 10, 2, 0.4, 0.08, and 0 ng/mL are prepared. For the compound-treated cells, solutions of VEGF at 550 ng/mL or bFGF at 220 ng/mL for 50 ng/mL or 20 ng/mL final concentrations, respectively, are prepared since 10 μL of each will be added to the cells (110 μL final volume). At the appropriate time after adding the compounds, the growth factors are added. VEGF is added to one set of plates, while bFGF is added to another set of plates. For the growth factor control curves, the media on wells B4-G6 of plates 1 and 2 are replaced with media containing VEGF or bFGF at the varying concentrations (50-0 ng/mL). The cells are incubated at 37° C. for an additional 72 h.
At the completion of the 72 h incubation period, the medium is removed, and the cells are washed twice with PBS. After the second wash with PBS, the plates are tapped gently to remove excess PBS, and the cells are placed at −70° C. for at least 30 min. The cells are thawed and analyzed using the CyQuant fluorescent dye (Molecular Probes C-7026), following the manufacturer's recommendations. The plates are read on a Victor/Wallac 1420 workstation at 485 nm/530 nm (excitation/emission). Raw data are collected and analyzed using a 4-parameter fit equation in XLFit. IC50 values are then determined.

The test system of series [2] is Human peripheral blood lymphocytes. The series is described as follows: Human mixed lymphocyte reaction (huMLR). It counts as cell-based. The conditions noted are these: 3H-thymidine incorporation, 6 days, read-out: IC50, inhibition of T-cell activation. As to the method: Human Mixed Lymphocyte Reaction (huMLR):
The purpose of this assay is to test the potency of T cell activation inhibitors in an in vitro model of allogeneic T cell stimulation. Human peripheral blood lymphocytes (hPBL; 2×10^5/well) are incubated with mitomycin C-treated B lymphoblastoid cells (JY cell line; 1×10^5/well) as allogeneic stimulators in the presence or absence of dilutions of potential inhibitor compound in 96-well round-bottom tissue culture plates. These cultures are incubated at 37° C. in 5% CO2 for 6 days total. The proliferative response of the hPBL is measured by ^3H-thymidine incorporation overnight between days 5 and 6 after initiation of culture. Cells are harvested onto glass fiber filters and ^3H-thymidine incorporation into DNA is analyzed by liquid scintillation counter.
Background: Dividing cells build labelled thymidine or BrdU into new DNA.

One may read the melting point as the temperature of the solid-liquid transition. `CCNC(=O)Nc1ccc2c(F)c(Oc3ccnc4cc(OCCCN5CCOCC5)c(OC)cc34)ccc2c1` [Example 111] returned a melting point of 193.5 to 196.4 °C.
Regarding `COc1cc2nccc(Oc3ccc4c(C(=O)Nc5ccc(Cl)cc5)cccc4c3)c2cc1OC` [Example 114, 6-(6,7-Dimethoxy-quinolin-4-yloxy)-naphthalene-1-carboxylic acid(4-chloro-phenyl)-amide], in series [1], the IC50 was under 500 nM.
Take `COc1cc2nccc(Oc3ccc4c(C(=O)Nc5ccc(C(F)(F)F)cc5)cccc4c3)c2cc1OC` [Example 115, 6-(6,7-dimethoxy-quinolin-4-yloxy)-naphthalene-1-carboxylix acid (4-trifluoromethyl-phenyl)-amide]: the IC50 in series [1] (VEGF-stimulated) is under 500 nM.
Regarding `COc1cc2nccc(Oc3ccc4c(C(=O)Nc5cccc(C(F)(F)F)c5)cccc4c3)c2cc1OC` [Example 116, 6-(6,7-dimethoxy-quinolin-4-yloxy)-naphthalene-1-carboxylix acid (3-trifluoromethyl-phenyl)-amide], the IC50 in series [1] (VEGF-stimulated) was under 500 nM.
Still for that read-out and setting: the result for `COc1cc2nccc(Oc3ccc4c(C(=O)Nc5ccc(Cl)c(C(F)(F)F)c5)cccc4c3)c2cc1OC` [Example 117, 6-(6,7-dimethoxy-quinolin-4-yloxy)-naphthalene-1-carboxylix acid (4-chloro-3-trifluoromethyl-phenyl)-amide] reads under 500 nM.
Turning to `COc1cc2nccc(Oc3ccc4c(NC(=O)c5ccccc5F)cccc4c3)c2cc1OC` [Example 120, N-[6-(6,7-dimethoxy-quinolin-4-yloxy)-naphthalen-1-yl]-2-fluoro-benzamide], the IC50 in series [1] (VEGF-stimulated) is under 500 nM.
On the same count and under the same terms, for `COc1cc2nccc(Oc3ccc4c(NC(=O)c5ccc(Cl)cc5)cccc4c3)c2cc1OC` [Example 121, N-[6-(6,7-Dimethoxy-quinolin-4-yloxy)-naphthalen-1-yl]-4-chloro-benzamide] the value was under 500 nM.
For `COc1cc2nccc(Oc3ccc4c(C(=O)Nc5ncc(C)s5)cccc4c3)c2cc1OC` [Example 289, 6-((6,7-bis(methoxy)-4-quinolinyl)oxy)-N-(5-methyl-1,3-thiazol-2-yl)-1-naphthalenecarboxamide], the IC50 in series [2] is under 100 nM.
In the case of `COc1cc2c(Oc3ccc4c(C(=O)Nc5cccc(C(F)(F)F)c5)cccc4c3)ccnc2cc1OCCCN1CCOCC1` [Example 314, 6-((6-(methoxy)-7-((3-(4-morpholinyl)propyl)oxy)-4-quinolinyl)oxy)-N-(3-(trifluoromethyl)phenyl)-1-naphthalenecarboxamide], the IC50 in series [2] was under 100 nM.
Same read-out and setting: for `COc1cc2c(Oc3ccc4c(C(=O)Nc5cc(C(C)(C)C)[nH]n5)cccc4c3)ccnc2cc1OCCCN1CCOCC1` [Example 325, N-(5-(1,1-dimethylethyl)-1H-pyrazol-3-yl)-6-((6-(methoxy)-7-((3-(4-morpholinyl)propyl)oxy)-4-quinolinyl)oxy)-1-naphthalenecarboxamide] the value was under 100 nM.
Still for that read-out and setting: the result for `COc1ccc(C(C)(C)C)cc1NC(=O)c1cccc2cc(Oc3ccnc4cc(OCCCN5CCOCC5)c(OC)cc34)ccc12` [Example 342, N-(5-(1,1-dimethylethyl)-2-(methoxy)phenyl)-6-((6-(methoxy)-7-((3-(4-morpholinyl)propyl)oxy)-4-quinolinyl)oxy)-1-naphthalenecarboxamide] reads under 100 nM; that for `COc1cc2nccc(Oc3ccc4c(C(=O)Nc5cc(C(C)(C)C)on5)cccc4c3F)c2cc1OC` [Example 467, 6-((6,7-bis(methoxy)-4-quinolinyl)oxy)-N-(5-(1,1-dimethylethyl)-3-isoxazolyl)-5-fluoro-1-naphthalenecarboxamide], under 100 nM.
On the same count and under the same terms, for `COc1cc2nccc(Oc3ccc4c(C(=O)Nc5cc(C(C)(C)C)on5)ccc(C)c4c3)c2cc1OC` [Example 541, 6-((6,7-bis(methoxy)-4-quinolinyl)oxy)-N-(5-(1,1-dimethylethyl)-3-isoxazolyl)-4-methyl-1-naphthalenecarboxamide] the value was under 100 nM; for `COc1cc2nccc(Oc3ccc4c(C(=O)Nc5cc(C(C)(C)C)on5)cccc4c3)c2cc1OC` [Example 583, 6-((6,7-bis(methoxy)-4-quinolinyl)oxy)-N-(5-(1,1-dimethylethyl)-3-isoxazolyl)-1-naphthalenecarboxamide], under 100 nM; for `COc1cc2nccc(Oc3ccc4c(C(=O)Nc5cc(C(C)(C)C)[nH]n5)cccc4c3)c2cc1OC` [Example 589, 6-((6,7-bis(methoxy)-4-quinolinyl)oxy)-N-(5-(1,1-dimethylethyl)-1H-pyrazol-3-yl)-1-naphthalenecarboxamide], under 100 nM.
Regarding `COc1cc2c(Oc3ccc4c(C(=O)Nc5cc(C(C)(C)C)on5)cccc4c3F)ccnc2cc1OCCCN1CCOCC1` [Example 611, N-(5-(1,1-dimethylethyl)-3-isoxazolyl)-5-fluoro-6-((6-(methoxy)-7-((3-(4-morpholinyl)propyl)oxy)-4-quinolinyl)oxy)-1-naphthalenecarboxamide], in series [2], the IC50 was under 100 nM.
For the compound `COc1cc2nccc(Oc3ccc4c(C(=O)Nc5cc(C(F)(F)F)ccn5)cccc4c3)c2cc1OC` [Example 657, 6-((6,7-bis(methoxy)-4-quinolinyl)oxy)-N-(4-(trifluoromethyl)-2-pyridinyl)-1-naphthalenecarboxamide], the IC50 in series [2] was under 100 nM.
The same measure, in the same setting: the result for `COc1cc2c(Oc3ccc4c(C(=O)Nc5cc(C(C)(C)C)on5)cccc4c3)ncnc2cc1OCCCN1CCCCC1` [Example 732, N-(5-(1,1-dimethylethyl)-3-isoxazolyl)-6-((6-(methoxy)-7-((3-(1-piperidinyl)propyl)oxy)-4-quinazolinyl)oxy)-1-naphthalenecarboxamide] reads under 100 nM; that for `COc1cc2c(Oc3ccc4c(C(=O)Nc5ccc(Cl)cc5)cccc4c3F)ccnc2cc1OCCCN1CCOCC1` [Example 816], under 100 nM.
